In PMC10882993, “Protecting the Achilles heel: three FolE_I-type GTP-cyclohydrolases needed for full growth of metal-resistant Cupriavidus metallidurans under a variety of conditions” (Journal of Bacteriology, 2024):
≈ marks a conversion by molar mass, not a printed value. Like-named read-outs stand apart in the source and are kept apart here.

Assays:
Test in all cases: microbe, parasite or virus in culture
[1] = system: T1, Cupriavidus metallidurans AE104; design: growth inhibition of bacterial culture by metal chelators
T1 construct: AE104
From the text: EDTA, membrane-permeant TPEN, and DIP complex divalent transition metal cations with similar stability constants, EDTA with Cu > Ni > Zn > Co > Fe = Mn, TPEN with a similar ranking but higher stability constants, and DIP with Cu = Fe > Zn in an inverted arrangement ([43][–][45]). The ∆folE single and double mutants grew with only a slight delay compared to the parental strain AE104 in the presence of TPEN (Fig. S8), and the IC50 values for the ∆folE single mutants and TPEN were not different from that of the parent AE104 (Table S8). When the gene for the zinc importer ZupT was deleted, the IC50 values of all strains decreased below 0.5 µM TPEN, again without differences between the mutants and the ∆zupT parent (Fig. S8C). […] Due to large deviations, not much influence of TPEN on the growth of the ∆folE mutants could be measured. […] In contrast, TPEN mediated an overall decrease of metal availability. In the presence of DIP, growth of both ∆folE_IB mutants of strain AE104 was similar to their parent, but the ∆folE_IA mutant was more sensitive to DIP (Fig. S9A) with a decrease in the IC50 value from about 60 µM to 36 ± 7 µM (Table S8). The zinc content of the four strains in the presence of 25 µM DIP was similar, but the cobalt content was decreased (Table S6). […]

[2] = system: T1, Cupriavidus metallidurans AE104; design: growth inhibition of bacterial culture by oxidative stress agents; conditions: read-out: PQ
[3] = system: T1, Cupriavidus metallidurans AE104; design: growth inhibition of bacterial culture, final turbidity in TMM medium; conditions: read-out: TMP,
Experimental: Trimethoprim and sulfonamide interfere with THF biosynthesis in steps downstream of the reaction catalyzed by the FolE_I-type enzymes. Neither substance induced an up-regulation of folE_IB1 or folE_IA (Table S2), but TMP did induce expression of pfl-glyA (Table S1). The ∆folE_IB1 mutant of strain AE104 was less resistant to trimethoprim than its wild-type parent or the other two ∆folE deletion mutants (Fig. 7A), and the IC50 for trimethoprim decreased from 4 to 3.3 mg/L (Table S9). Resistance to trimethoprim was not affected in the ∆folE_IB2 ∆folE_IA mutant with FolE_IB1 only, but it was in the two double mutants that carried a ∆folE_IB1 deletion (Fig. 7). Resistance to TMP decreased in the ∆zupT ∆folE_IB1 but not in the ∆zur ∆folE_IB1 mutant (Fig. 7B and C). […] Since TMP decreased the concentration of fTHF as shown by the up-regulation of pfl-glyA-lacZ expression, an increased folate production was needed to counteract inhibition of a later step of folate biosynthesis by TMP. This explains the need for the activity of both FolE_IA and FolE_IB1 to resist TMP inhibition. […] Final turbidity of C. metallidurans strains in medium zinc TMM containing varying concentrations of trimethoprim is shown for derivatives of strain AE104 single (panel A) and double (panel B) mutants, ∆zupT (panel C), and ∆zur single mutants (panel D). […]

**Q.** Which IC50 ([1]; read-out: DIP) does the source give for `c1ccc(-c2ccccn2)nc1` [DIP, dipyridyl] here?
**A.** 57 ± 4 µM

**Q.** For `C[n+]1ccc(-c2cc[n+](C)cc2)cc1` [PQ, paraquat], which IC50 [2] is on record?
**A.** 181 ± 17 µM

**Q.** How did the IC50 [3] turn out when `COc1cc(Cc2cnc(N)nc2N)cc(OC)c1OC` [TMP, trimethoprim] was run?
**A.** 4 ± 0.2 µg/mL (≈ 13.8 µM)

**Q.** For `c1ccc(CN(CCN(Cc2ccccn2)Cc2ccccn2)Cc2ccccn2)nc1` [TPEN, N,N,N′,N′-tetrakis(2-pyridinylmethyl)-1,2-ethanediamine], which IC50 ([1]; read-out: TPEN) is on record?
**A.** 1.1 ± 0.4 µM
